Measurements as given in patent US9133115B2 (ACHILLION PHARMACEUTICALS, INC., priority 2008, dated 2015).
Where two headings read alike, the source gives them in different places.

System: HCV replicon
Assay: HCV replicon replication assay (NPT ELISA) in Huh-7 replicon-containing cells
Assay type: cell-based
Conditions: Hepatitis C virus
Method: Compounds claimed herein are tested for the ability to inhibit viral replication of the Hepatitis C replicon in cultured cells in which the HCV replicon construct has been incorporated. The HCV replicon system was described by Bartenschlager, et. al (Science, 285, pp. 110-113 (1999)). The replicon system is predictive of in vivo anti-HCV activity; compounds that are active in humans uniformly evidence activity in the replicon assay.
In this assay HCV replicon containing cells are treated with different concentrations of the test compound to ascertain the ability of the test compound to suppress replication of the HCV replicon. As a positive control, HCV replicon-containing cells are treated with different concentrations of interferon alpha, a known inhibitor of HCV replication. The replicon assay system includes Neomycin Phosphotransferase (NPT) as a component of the replicon itself in order to detect the transcription of replicon gene products in the host cell. Cells in which the HCV replicon is actively replicating have high levels of NPT; the level of NPT is proportional to HCV replication. […] The NPT level of each sample is measured using a captured ELISA.
A protocol for testing compounds for the ability to inhibit viral replication of the Hepatitis C replicon cultured cells in which the replicon construct has been incorporated, follows.
The HCV replicon contains, 5′-3′, the HCV-IRES, the neomycin phosphotransferase (neo) gene, the IRES of encephalomyocarditis virus, which directs translation of HCV sequences NS3 to NS5B, and the 3′-NTR. The sequence of the HCV replicon has been deposited in GenBank (Accession no. AJ242652).
The replicon is transfected into Huh-7 cells using standard methods such as electroporation.
The equipment and materials include, but are not limited to, Huh-7 HCV replicon-containing cells, maintenance media (DMEM (Dulbecco's modified Eagle media) supplemented with 10% FBS, L-glutamine, non-essential amino acids, penicillin (100 units/ml), streptomycin (100 micrograms/ml), and 500 micrograms/ml of Geneticin (G418), screening media (DMEM supplemented with 10% FBS, L-glutamine, non-essential amino acids, penicillin (100 units/ml) and streptomycin (100 micrograms/ml)), 96 well tissue culture plates (flat bottom), 96 well plates (U bottom for drug dilution), Interferon alpha for positive control, fixation reagent (such as methanol: acetone), primary antibody (rabbit anti-NPTII), secondary antibody: Eu-N1 l, and enhancement solution.
HCV replicon-containing cells support high levels of viral RNA replicon replication when their density is suitable. Over-confluency causes decreased viral RNA replication. Therefore, cells must be kept growing in log phase in the presence of 500 micrograms/ml of G418. Generally, cells should be passed twice a week at 1: 4-6 dilution. Cell maintenance is conducted as follows:
HCV replicon-containing cells are examined under a microscope to ensure that cells growing well. Cells are rinsed once with PBS and 2 ml trypsin is added. The cell/trypsin mixture is incubated at 37° C. in a CO2 incubator for 3-5 minutes. After incubation 10 ml of complete media is added to stop the trypsinization reaction. Cells are blown gently, put into a 15 ml tube, and spun at 1200 rpm for 4 minutes. The trypsin/medium solution is removed. Medium (5 ml) is added and the cells are mixed carefully. The cells are counted.
The cells are then seeded onto 96-well plates at a density of 6000-7500 cells/100 microliters/well (6-7.5×10^5 cells/10 ml/plate). The plates are then incubated at 37° C. in a 5% CO2 incubator.
Cells are examined under a microscope approximated 24 hours after seeding and prior to adding drugs. If counting and dilution were performed correctly, cells are 60-70% confluent and nearly all cells should attach and spread evenly in the well.
HCV replicon-containing cells are rinsed with once PBS once; 2 mls of trypsin are then added. Cells are incubated at 37° C. in a 5% CO2 incubator for 3-5 minutes. […]

[1] = 72 h, HCV replicon in Huh-7 cells, three days incubation, read-out: EC50

SMILES | EC50 [1] | EC50 (Huh-7)
C=C[C@@H]1CC1(NC(=O)[C@@H]1C[C@@H](Oc2nc(-c3ccccn3)cc3c(Cl)c(OC)ccc23)CN1C(=O)[C@@H](CC(=O)N1CCC(C(F)(F)F)CC1)C(C)(C)C)C(=O)NS(=O)(=O)C1CC1 (mixture of isomers) [Compound 245, (2S,4R)-1-((S)-2-tert-butyl-4-oxo-4-(4-(trifluoro-methyl)piperidin-1-yl)butanoyl)-4-(5-chloro-6-methoxy-3-(pyridin-2-yl)isoquinolin-1-yloxy)-N-((S)-1-(cyclopropyl-sulfonylcarbamoyl)-2-vinylcyclo-propyl)pyrrolidine-2-carboxamide] | < 1 µM | –
C=C[C@@H]1CC1(NC(=O)[C@@H]1C[C@@H](Oc2cc(-c3ccccn3)nc3c(C)c(OC)ccc23)CN1C(=O)[C@@H](CC(=O)N1CCC(C(F)(F)F)CC1)C(C)(C)C)C(=O)NS(=O)(=O)C1CC1 (mixture of isomers) [Compound 249, (2S,4R)-1-((S)-2-tert-butyl-4-oxo-4-(4-(trifluoro-methyl)piperidin-1-yl)butanoyl)-N-((S)-1-(cyclopropyl-sulfonylcarbamoyl)-2-vinylcyclopropyl)-4-(7-methoxy-8-methyl-2-(pyridin-2-yl)quinolin-4-yloxy)pyrrolidine-2-carboxamide] | < 1 µM | –
C=C[C@@H]1CC1(NC(=O)[C@@H]1C[C@@H](Oc2cc(-c3nc(C(C)C)cs3)nc3c(C)c(OC)ccc23)CN1C(=O)[C@@H](CC(=O)N1CCC(C(F)(F)F)CC1)C(C)(C)C)C(=O)NS(=O)(=O)C1CC1 (stereo in doubt) [Compound 250, (2S,4R)-1-((S)-2-tert-butyl-4-oxo-4-(4-(trifluoro-methyl)piperidin-1-yl)butanoyl)-N-((S)-1-(cyclopropyl-sulfonylcarbamoyl)-2-vinylcyclopropyl)-4-(2-(4-isopropylthiazol-2-yl)-7-methoxy-8-methylquinolin-4-yloxy)pyrrolidine-2-carboxamide] | < 1 µM | –
C=C[C@@H]1CC1(NC(=O)[C@@H]1C[C@@H](Oc2cc(-c3cccnc3)nc3c(C)c(OC)ccc23)CN1C(=O)[C@@H](CC(=O)N1CCC(C(F)(F)F)CC1)C(C)(C)C)C(=O)NS(=O)(=O)C1CC1 (stereo in doubt) [Compound 253, (2S,4R)-1-((S)-2-tert-butyl-4-oxo-4-(4-(trifluoro-methyl)piperidin-1-yl)butanoyl)-N-((S)-1-(cyclopropyl-sulfonylcarbamoyl)-2-vinylcyclopropyl)-4-(7-methoxy-8-methyl-2-(pyridin-3-yl)quinolin-4-yloxy)pyrrolidine-2-carboxamide] | < 1 µM | –
C=CC1CC1(NC(=O)[C@@H]1C[C@@H](Oc2cc(-c3ccccc3)nc3cc(OC)ccc23)CN1C(=O)[C@@H](CC(=O)O)C(C)(C)C)C(=O)OCC (stereo partly drawn) [Compound 11, (3S)-3-((2S,4R)-2-(1-(ethoxycarbonyl)-2-vinylcyclopropylcarbamoyl)-4-(7-methoxy-2-phenylquinolin-4-yloxy)pyrrolidine-1-carbonyl)-4,4-dimethylpentanoic acid] | – | ≤ 10 µM
C=C[C@@H]1C[C@@]1(NC(=O)[C@@H]1C[C@@H](Oc2cc(-c3ccccc3)nc3cc(OC)ccc23)CN1C(=O)[C@@H](CC(=O)N1CCCCC1)C(C)(C)C)C(=O)NS(=O)(=O)C1CC1 [Compound 38, (2S,4R)-1-((S)-2-tert-butyl-4-oxo-4-(piperidin-1-yl)butanoyl)-N-((1S,2S)-1-(cyclopropylsulfonyl-carbamoyl)-2-vinylcyclopropyl)-4-(7-methoxy-2-phenylquinolin-4-yloxy)pyrrolidine-2-carboxamide] | < 1 µM | ≤ 10 µM
C=CC1C[C@@]1(NC(=O)[C@@H]1C[C@@H](Oc2cc(-c3ccccc3)nc3cc(OC)ccc23)CN1C(=O)C[C@H](C(=O)N1CCCCC1)C(C)(C)C)C(=O)NS(=O)(=O)C1CC1 (stereo partly drawn) [Compound 39, (2S,4R)-N-(1-(cyclo-propylsulfonyl-carbamoyl)-2-vinylcyclopropyl)-1-((S)-4,4-dimethyl-3-(piperidine-1-carbonyl)pentano-yl)-4-(7-methoxy-2-phenylquinolin-4-yloxy)pyrrolidine-2-carboxamide] | < 1 µM | ≤ 10 µM
